The source of these data is PubChem BioAssay AID248 (DTP/NCI, 2004).

The experiment has as its system L1210 leukemia ip in BDF1 mice, survival T/C. As to the kind of experiment: NCI In Vivo Anticancer Drug Screen. Data for tumor model L1210 Leukemia (intraperitoneal) in B6D2F1 (BDF1) mice. The conditions noted are these: endpoint: mean survival time, higher = longer survival. A digest of the protocol:
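Transplanted-tumor mice were given test agent; controls received vehicle only. Survival readings from the two groups were divided (treated over control).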

Where [1] appears, read: dose: 12.5 mg/kg/injection, schedule: Q01DX009 (ip), vehicle: saline.
Where [2] appears, read: dose: 25.0 mg/kg/injection, schedule: Q01DX009 (ip), vehicle: saline.
The mark [3] stands for this setting: dose: 100.0 mg/kg/injection, schedule: Q04DX003 (ip), vehicle: saline with Tween-80.
Where [4] appears, read: dose: 200.0 mg/kg/injection, schedule: Q04DX003 (ip), vehicle: saline with Tween-80.
Setting [5] is: dose: 400.0 mg/kg/injection, schedule: Q04DX003 (ip), vehicle: saline with Tween-80.
[6] abbreviates: dose: 100.0 mg/kg/injection, schedule: Q01DX009 (ip), vehicle: Klucel (hydroxypropylcellulose) (HPC).
The mark [7] stands for this setting: dose: 200.0 mg/kg/injection, schedule: Q01DX009 (ip), vehicle: Klucel (hydroxypropylcellulose) (HPC).
[8] abbreviates: dose: 50.0 mg/kg/injection, schedule: Q01DX009 (ip), vehicle: Klucel (hydroxypropylcellulose) (HPC).
[9] abbreviates: dose: 200.0 mg/kg/injection, schedule: Q04DX002 (ip), vehicle: Klucel (hydroxypropylcellulose) (HPC).
The mark [10] stands for this setting: dose: 400.0 mg/kg/injection, schedule: Q04DX002 (ip), vehicle: Klucel (hydroxypropylcellulose) (HPC).
Where [11] appears, read: dose: 100.0 mg/kg/injection, schedule: Q04DX003 (ip), vehicle: Klucel (hydroxypropylcellulose) (HPC).
Setting [12] is: dose: 400.0 mg/kg/injection, schedule: Q04DX003 (ip), vehicle: Klucel (hydroxypropylcellulose) (HPC).
Where [13] appears, read: dose: 100.0 mg/kg/injection, schedule: Q04DX003 (ip), vehicle: saline.
The mark [14] stands for this setting: dose: 200.0 mg/kg/injection, schedule: Q04DX003 (ip), vehicle: saline.
Setting [15] is: dose: 400.0 mg/kg/injection, schedule: Q04DX003 (ip), vehicle: saline.
[16] abbreviates: dose: 100.0 mg/kg/injection, schedule: Q01DX001 (ip), vehicle: other.
[17] abbreviates: dose: 100.0 mg/kg/injection, schedule: Q01DX009 (ip), vehicle: saline with Tween-80.
Where [18] appears, read: dose: 200.0 mg/kg/injection, schedule: Q01DX009 (ip), vehicle: saline with Tween-80.

Where “and” joins values, the source holds several entries; their conditions need not be identical. Identical values can stand only once. Inconclusive results and toxic doses are left out.

Consider `CN(C)NCCN1CCN(CCCN2c3ccccc3Sc3ccc(C(F)(F)F)cc32)CC1`, for which the T/C reads like this: (dose: 6.25 mg/kg/injection, schedule: Q01DX009 (ip), vehicle: saline) 116 % of control; under setting [1], 89 % of control; (dose: 12.5 mg/kg/injection, schedule: Q04DX003 (ip), vehicle: saline) 101 % of control; under setting [2], 107 % of control; (dose: 25.0 mg/kg/injection, schedule: Q04DX003 (ip), vehicle: saline) 104 % of control.
For `CC(C)=CC#N`, the T/C was 90 % of control under setting [3], 103 % of control under setting [4] and 101 % of control under setting [5].
In the case of `COC(=O)C1C(C(=O)OC)C2(Cl)C(Cl)=C(Cl)C1(Cl)C2(Cl)Cl` (stereo not drawn), the T/C was 98 % of control under setting [6] and 104 % of control under setting [7].
Consider `O=C(Nc1ccc(F)c([N+](=O)[O-])c1)N(Cc1ccccc1)c1ccccc1`, for which the T/C is, setting by setting: under setting [6], 101 % of control; under setting [7], 104 % of control; (dose: 400.0 mg/kg/injection, schedule: Q01DX009 (ip), vehicle: Klucel (hydroxypropylcellulose) (HPC)) 98 % of control.
Turning to `CC(C)(c1cc(Br)sc1Br)c1cc(Br)sc1Br`, the T/C under setting [8] is 95 % of control; the T/C under setting [6] was 98 % of control; the T/C (dose: 100.0 mg/kg/injection, schedule: Q04DX003 (ip), vehicle: acetone) was 106 % of control; the T/C under setting [7] is 101 % of control; the T/C (dose: 200.0 mg/kg/injection, schedule: Q04DX003 (ip), vehicle: acetone) is 117 % of control; the T/C (dose: 400.0 mg/kg/injection, schedule: Q04DX003 (ip), vehicle: acetone) was 104 % of control.
Take `Cc1cccc(C2=N/C(=C\c3cccc([N+](=O)[O-])c3)C(=O)O2)c1`: the T/C runs as follows: (dose: 100.0 mg/kg/injection, schedule: Q04DX002 (ip), vehicle: Klucel (hydroxypropylcellulose) (HPC)) 92 % of control; under setting [9], 92 % of control; under setting [10], 100 % of control.
Turning to `Nc1nc(N)c2cc(S(=O)(=O)c3ccc4ccccc4c3)ccc2n1`, the T/C is 91 % of control under setting [6]; 98 % of control under setting [11]; 94 % of control under setting [7]; 96 % of control (dose: 200.0 mg/kg/injection, schedule: Q04DX003 (ip), vehicle: Klucel (hydroxypropylcellulose) (HPC)); 98 % of control under setting [12].
For `Cn1cnc([N+](=O)[O-])c1SCC(=O)O`, the T/C runs as follows: under setting [13], 102 % of control; under setting [14], 102 % of control; under setting [15], 101 % of control.
On to `CCOC(=O)CSCn1ncc2ccc([N+](=O)[O-])cc21`, for which the T/C under setting [16] is 95 % of control; the T/C (dose: 200.0 mg/kg/injection, schedule: Q01DX001 (ip), vehicle: other) was 95 % of control; the T/C (dose: 400.0 mg/kg/injection, schedule: Q01DX001 (ip), vehicle: other) was 97 % of control.
As for `COc1nc(-c2ccccc2)cn[n+]1C`, the T/C was 103 % of control (dose: 33.0 mg/kg/injection, schedule: Q01DX001 (ip), vehicle: saline with Tween-80); 107 % of control (dose: 50.0 mg/kg/injection, schedule: Q01DX001 (ip), vehicle: saline with Tween-80); 113 % of control (dose: 75.0 mg/kg/injection, schedule: Q01DX001 (ip), vehicle: saline with Tween-80).
With `CCCC/C=C/C(C)O` (stereo not drawn), the T/C is, setting by setting: (dose: 50.0 mg/kg/injection, schedule: Q01DX009 (ip), vehicle: saline with Tween-80) 101 % of control; under setting [17], 105 % of control; under setting [18], 97 % of control.
For the compound `OCC1C2CCC(CC2)C1CO` (stereo not drawn), the T/C under setting [1] is 102 % of control; the T/C (dose: 12.5 mg/kg/injection, schedule: Q04DX003 (ip), vehicle: saline with Tween-80) was 97 % of control; the T/C under setting [2] is 106 % of control; the T/C (dose: 25.0 mg/kg/injection, schedule: Q04DX003 (ip), vehicle: saline with Tween-80) is 94 % of control; the T/C (dose: 50.0 mg/kg/injection, schedule: Q04DX003 (ip), vehicle: saline with Tween-80) was 102 % of control; the T/C under setting [3] was 96 % of control. The T/C by setting is: under setting [4], 93 % of control; under setting [5], 102 % of control.
For the compound `COc1cc(NS(C)(=O)=O)ccc1Nc1c2ccccc2nc2cc(C(F)(F)F)c(N)cc12`, the T/C runs as follows: under setting [8], 113 % of control and 123 % of control; (dose: 50.0 mg/kg/injection, schedule: Q04DX003 (ip), vehicle: Klucel (hydroxypropylcellulose) (HPC)) 118 % of control; under setting [11], 123 % of control; under setting [7], 153 % of control and 174 % of control; under setting [9], 162 % of control; under setting [10], 179 % of control. Moreover, the T/C under setting [12] was 112 % of control.
Regarding `c1ccc2c(c1)Nc1ccncc1S2`, the T/C runs as follows: under setting [17], 95 % of control; under setting [18], 90 % of control; (dose: 400.0 mg/kg/injection, schedule: Q01DX009 (ip), vehicle: saline with Tween-80) 101 % of control.
Turning to `C[Si](C)(C)c1cccc(-c2ccccc2)c1`, the T/C (dose: 25.6 mg/kg/injection, schedule: Q04DX002 (ip), vehicle: saline with Tween-80) is 93 % of control; the T/C (dose: 64.0 mg/kg/injection, schedule: Q04DX002 (ip), vehicle: saline with Tween-80) was 104 % of control; the T/C under setting [3] was 101 % of control; the T/C (dose: 160.0 mg/kg/injection, schedule: Q04DX002 (ip), vehicle: saline with Tween-80) was 97 % of control; the T/C under setting [4] is 92 % of control; the T/C (dose: 400.0 mg/kg/injection, schedule: Q04DX002 (ip), vehicle: saline with Tween-80) is 97 % of control. Further, the T/C under setting [5] is 101 % of control.
In the case of `C[CH2][Ge]([CH2]C)([CH2]C)[CH2]CO`, the T/C was 103 % of control (dose: 5.0 mg/kg/injection, schedule: Q04DX002 (ip), vehicle: saline with Tween-80); 106 % of control (dose: 10.0 mg/kg/injection, schedule: Q04DX002 (ip), vehicle: saline with Tween-80); 103 % of control (dose: 20.0 mg/kg/injection, schedule: Q04DX002 (ip), vehicle: saline with Tween-80).
Turning to `CCCCOC(=O)c1[nH]cnc1/N=N\N(C)C`, the T/C by setting is: (dose: 10.0 mg/kg/injection, schedule: Q01DX009 (ip), vehicle: carboxymethylcellulose (CMC)) 100 % of control; (dose: 18.0 mg/kg/injection, schedule: Q01DX001 (ip), vehicle: other) 98 % of control; (dose: 20.0 mg/kg/injection, schedule: Q01DX009 (ip), vehicle: carboxymethylcellulose (CMC)) 109 % of control; (dose: 28.0 mg/kg/injection, schedule: Q01DX001 (ip), vehicle: other) 93 % of control; (dose: 40.0 mg/kg/injection, schedule: Q01DX009 (ip), vehicle: carboxymethylcellulose (CMC)) 114 % of control; (dose: 42.0 mg/kg/injection, schedule: Q01DX001 (ip), vehicle: other) 100 % of control. Further, the T/C is 102 % of control (dose: 63.0 mg/kg/injection, schedule: Q01DX001 (ip), vehicle: other); 110 % of control (dose: 72.0 mg/kg/injection, schedule: Q01DX015 (ip), vehicle: other); 111 % of control under setting [16]; 101 % of control (dose: 120.0 mg/kg/injection, schedule: Q01DX015 (ip), vehicle: other).
Regarding `CN(CC(=O)O)Cc1ccccc1`, the T/C is 93 % of control (dose: 100.0 mg/kg/injection, schedule: Q01DX009 (ip), vehicle: saline); 104 % of control under setting [13]; 88 % of control (dose: 200.0 mg/kg/injection, schedule: Q01DX009 (ip), vehicle: saline); 109 % of control under setting [14]; 93 % of control (dose: 400.0 mg/kg/injection, schedule: Q01DX009 (ip), vehicle: saline); 102 % of control under setting [15].
